Publication PMC12311729, “Probing the Mechanism of L‑DOPA 2,3-Dioxygenase Using Synthetic Derivatives of 3,4-Dihydroxyhydrocinnamic Acid” (ACS Omega, 2025)

System: S. hygroscopicus jingganensis L-DOPA 2,3-dioxygenase (ShjDDO)
Experiment: Presteady state stopped-flow kinetic assay, modeled with KinTek Explorer
Type: biochemical, Streptomyces hygroscopicus jingganensis
Method: Reaction temperature was controlled at 14 ± 0.5 °C by a circulating water bath. […] Stock solutions of 6-[…] prepared in DMSO. […] ShjDDO was reconstituted with iron(II) sulfate heptahydrate, gel filtered into the reaction buffer, and loaded into the drive syringe. […] Fifteen to twenty progress curves from the same experimental conditions were averaged in the KinTek Stopped Flow software and exported to KinTek Explorer for modeling. Between experiments, the instrument drive syringes were cleaned with acid, base, and water; soaked in 1% Hellmanex detergent for 30 min at ∼30-35 °C; thoroughly rinsed with water; and stored in 10% ethanol. […] state kinetic data were analyzed by fitting to simulated mechanisms using the KinTek Explorer software (KinTek Corp, Austin, TX). KinTek Explorer simulates experimental results by using direct numerical integration of rate equations for the kinetic model and yields estimates for the rate constants of microscopic steps. […] state experiments were modeled using KinTek Explorer according to a defined reaction pathway, as described in the Results and Discussion and shown in Scheme . The extinction coefficients of the DHHCA and 6-[…] semialdehyde products were independently determined as described above and fixed during fitting. Some rates were fixed as either “fast” (i.e., 1 × 10^9) or very slow (1 × 10^-12, i.e., ∼0) as described in the text. The equilibrium represented by k 1 and k -1 was fixed at the ratio of substrate charge states as predicted by the experimentally determined pK a values (Table ) and the Henderson-Hasselbach equation. Extinction coefficients were fitted and/or fixed during fitting as described in the text and interpreted using the observable expression: […], where a is the extinction coefficient applied to ESQ, b is the independently experimentally determined extinction coefficient on P, and c is a y-axis offset. […] ESO2 is the ternary complex of enzyme, substrate, and oxygen. ESQ represents the putative semiquinone intermediate, a UV-absorbing species, and ESQ_X is the species formed from the nonproductive quenching of the semiquinone. […] EP is the enzyme-product complex, and P is the free semialdehyde product. P can then degrade nonenzymatically to the spectroscopically silent P_X. Errors on each fit were calculated from 2[…] at 0.83 Chi^2. The KinTek Explorer program FitSpace explores the uniqueness of a particular fit to the data by measuring the dependence of the sum square error (SSE) on each pair of parameters, while allowing all other parameters to vary in seeking the best fit. […]

[1] = pH 7.35, 14 °C, ∼1000 μM O2, 380 nm, fitted, ± is FitSpace range

k6 (productive formation of EI) [1]: ~0.55 s⁻¹ | k7 (rate of inactivation, ESQ to ESQ_X) [1]: ~0.3 s⁻¹ | productive formation of EI (k 6) faster than the rate of inactivation (k 7) (ratio k6/k7, presteady state with ShjDDO): 1.85 times
SMILES: N#Cc1cc(O)c(O)cc1CCC(=O)O [6-CyanoDHHCA (5), 3-(2-cyano-4,5-dihydroxyphenyl) propanoic acid]
